Values quoted from earlier work, collected in patent US20110275602A1, “PHARMACEUTICAL ASSOCIATION, COMPOSITIONS FOR TOPICAL USE, FORMS OF DOSAGE AND METHOD OF TREATMENT OF ACUTE OR CHRONIC OTITIS IN PET ANIMALS” (priority 2007, published 2011).

System: acute external otitis
Conditions: humans; literature

## O=C(O)c1cn(C2CC2)c2cc(N3CCNCC3)c(F)cc2c1=O [ciprofloxacin]
  efficacy for the treatment of acute external otitis: 77%
